The target in the test is T1, GPR43 (Homo sapiens, UniProt O15552).
T1 construct: expressed in transfected cells
T1 sequence (O15552 1-330): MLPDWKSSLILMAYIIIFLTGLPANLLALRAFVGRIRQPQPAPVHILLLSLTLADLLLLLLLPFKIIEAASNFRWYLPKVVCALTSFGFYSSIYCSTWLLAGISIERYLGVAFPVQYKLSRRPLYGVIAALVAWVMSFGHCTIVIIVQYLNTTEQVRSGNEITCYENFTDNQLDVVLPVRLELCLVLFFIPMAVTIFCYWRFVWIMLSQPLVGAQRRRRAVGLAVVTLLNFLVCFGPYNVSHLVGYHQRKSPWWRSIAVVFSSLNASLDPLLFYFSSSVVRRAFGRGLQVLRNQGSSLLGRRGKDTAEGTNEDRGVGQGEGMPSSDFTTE
Briefly: Calcium mobilization assay with probenecid. In kind it is cell-based. The following applies: GPR43 stably expressing cells; triggered with sodium acetate at EC80; 2.5 mM probenecid; read-out: GPR43 assay with probenicid IC50. The procedure:
The following assay can be used for determination of GPR43 activation. The assay measures intracellular calcium release induced by activation of GPR43. On day 1, GPR43 stably expressing cells were detached with mild trypsinization (Trypsin, 0.25% with EDTA 4Na, 5× diluted in PBS) centrifuged at 1000 rpm for 5 min and resuspended at 6.000 cells/25 […] medium (DMEM supplemented with 10% FBS, 10 μg/mL puromycin and 1% Pen/Strep). The cells were distributed in poly-D-lysine coated 384 well plates (black with clear bottom, 25 μL/well) and incubated overnight at 37° C. 10% CO2.
On day 2, 25 μL of a fluorescent Ca^2+ indicator (Calcium 4 assay; Molecular Devices) supplemented with 2.5 mM probenecid was added on top of the cells and incubated for 2 h at 37° C. Subsequently, compounds at increasing concentration (10 μL/well) were added to the plate and incubated for 15 min at 37° C.
To measure agonist activity of the compounds, compound was added to the well and the Ca^2+-flux was measured simultaneously to the […] of compound.
On the technique in general: A change in cytosolic calcium serves as a functional read-out for many receptors and channels.

Take `Cc1cc(C)cc(CC(=O)N2CCC2(C)C(=O)N(CCCC(=O)N2CCN(C)CC2)Cc2ccc(Cl)cc2)c1` (stereo not drawn) [Compound 124, 1-[2-(3,5-Dimethyl-phenyl)-acetyl]-2-methyl-azetidine-2-carboxylic acid (4-chloro-benzyl)-[4-(4-methyl-piperazin-1-yl)-4-oxo-butyl]-amide]: the IC50 was in the range of 501 to 1000 nM.

For the compound `Cc1cc(C)cc(CC(=O)N2CCC2(C)C(=O)N(CCCC(=O)N(C)C)Cc2ccc(Cl)cc2)c1` (stereo not drawn) [Compound 125, 1-[2-(3,5-Dimethyl-phenyl)-acetyl]-2-methyl-azetidine-2-carboxylic acid (4-chloro-benzyl)-(3-dimethylcarbamoyl-propyl)-amide], the IC50 is above 1000 nM.

For `CN(Cc1ccc(Cl)cc1)C(=O)C1(C)CCN1C(=O)c1ccc2ccccc2c1` (stereo not drawn) [Compound 126, 1-(2-naphthoyl)-N-(4-chlorobenzyl)-N,2-dimethylazetidine-2-carboxamide], the IC50 is above 1000 nM.

As for `CC1(C(=O)N(CCCC(N)=O)Cc2ccc(Cl)cc2)CCN1C(=O)Cc1csc2ccccc12` (stereo not drawn) [Compound 127, 1-(2-Benzo[b]thiophen-3-yl-acetyl)-2-methyl-azetidine-2-carboxylic acid (3-carbamoyl-propyl)-(4-chloro-benzyl)-amide], the IC50 was above 1000 nM.

As for `CC1(C(=O)N(CCCC(=O)N2CCOCC2)Cc2ccc(Cl)cc2)CCN1C(=O)Cc1csc2ccccc12` (stereo not drawn) [Compound 129, 1-(2-Benzo[b]thiophen-3-yl-acetyl)-2-methyl-azetidine-2-carboxylic acid (4-chloro-benzyl)-(4-morpholin-4-yl-4-oxo-butyl)-amide], the IC50 lay in the range of 0.01 to 100 nM.

For `Cc1cc(C)cc(CC(=O)N2CCC2(C)C(=O)N(Cc2ccc(Cl)cc2)Cc2cc(O)[nH]n2)c1` (stereo not drawn) [Compound 133, 1-[2-(3,5-Dimethyl-phenyl)-acetyl]-2-methyl-azetidine-2-carboxylic acid (4-chloro-benzyl)-(5-hydroxy-1H-pyrazol-3-ylmethyl)-amide], the IC50 fell in the range of 0.01 to 100 nM.

On to `CC1(C(=O)N(CCCC(=O)O)Cc2ccc(Cl)cc2)CCN1C(=O)c1ccc2sccc2c1` (stereo not drawn) [Compound 135, 4-[[1-(Benzo[b]thiophene-5-carbonyl)-2-methyl-azetidine-2-carbonyl]-(4-chloro-benzyl)-amino]-butyric acid], for which the IC50 lay in the range of 501 to 1000 nM.

As for `CC1(C(=O)N(CCCC(=O)O)Cc2ccc(Cl)cc2)CCN1C(=O)Cc1cccc2sccc12` (stereo not drawn) [Compound 136, 4-[[1-(2-Benzo[b]thiophen-4-yl-acetyl)-2-methylazetidine-2-carbonyl]-(4-chloro-benzyl)-amino]-butyric acid], the IC50 fell in the range of 101 to 500 nM.

Turning to `CC1(C(=O)N(CCCC(=O)N2CCOCC2)Cc2ccc(Cl)cc2)CCN1C(=O)c1ccc2sccc2c1` (stereo not drawn) [Compound 138, 1-(benzo[b]thiophene-5-carbonyl)-N-(4-chlorobenzyl)-2-methyl-N-(4-morpholino-4-oxobutyl)azetidine-2-carboxamide], the 50% inhibitory concentration (IC50) was above 1000 nM.

Regarding `CC1(C(=O)N(CCCC(=O)N2CCOCC2)Cc2ccc(Cl)cc2)CCN1C(=O)c1csc2ccccc12` (stereo not drawn) [Compound 139, 1-(benzo[b]thiophene-3-carbonyl)-N-(4-chlorobenzyl)-2-methyl-N-(4-morpholino-4-oxobutyl)azetidine-2-carboxamide], the IC50 was above 1000 nM.

As to `CC1(C(=O)N(CCCC(=O)N2CCOCC2)Cc2ccc(Cl)cc2)CCN1C(=O)Cc1coc2ccccc12` (stereo not drawn) [Compound 140, 1-(2-Benzofuran-3-yl-acetyl)-2-methyl-azetidine-2-carboxylic acid (4-chloro-benzyl)-(4-morpholin-4-yl-4-oxo-butyl)-amide], the 50% inhibitory concentration (IC50) was above 1000 nM.

Regarding `CCOC(=O)CCCN(Cc1ccc(C(F)(F)F)cc1)C(=O)C1(C)CCN1C(=O)c1csc2ccccc12` (stereo not drawn) [Compound 141, ethyl 4-(1-(benzo[b]thiophene-3-carbonyl)-2-methyl-N-(4-(trifluoromethyl)benzyl)azetidine-2-carboxamido)butanoate], the half-inhibitory concentration (IC50) is above 1000 nM.

As a reminder, the IC50 is the point on the concentration scale where inhibition reaches its midpoint.
